Measured values: patent US8877748B2, “Heterocyclic fused anthraquinone derivatives, manufacturing method and pharmaceutical composition using thereof” (National Defense Medical Center, priority 2012, dated 2014)

Columns and labels:
[1] = system: KM12; assay: NCI one-dose screening, colon cancer KM12; format: cell-based, human; details: 10 μM
[2] = system: T-47D; assay: NCI one-dose screening, breast cancer T-47D; format: cell-based, human; details: 10 μM
[3] = system: NCl/ADR-RES; assay: NCI one-dose screening, breast cancer NCl/ADR-RES; format: cell-based, human; details: 10 μM; listed under Ovarian cancer
[4] = system: UACC-257; assay: NCI one-dose screening, melanoma UACC-257; format: cell-based, human; details: 10 μM
[5] = system: SN12C; assay: NCI one-dose screening, renal cancer SN12C; format: cell-based, human; details: 10 μM
[6] = system: MDA, -MB-435; assay: NCI one-dose screening, breast cancer MDA, -MB-435; format: cell-based, human; details: 10 μM; listed under Melanoma
[7] = system: SF-539; assay: NCI one-dose screening, CNS cancer SF-539; format: cell-based, human; details: 10 μM
[8] = system: 786-O; assay: NCI one-dose screening, renal cancer 786-O; format: cell-based, human; details: 10 μM
[9] = system: PC-3; assay: NCI one-dose screening, prostate cancer PC-3; format: cell-based, human; details: 10 μM
[10] = system: M14; assay: NCI one-dose screening, melanoma M14; format: cell-based, human; details: 10 μM
[11] = system: HCT-15; assay: NCI one-dose screening, colon cancer HCT-15; format: cell-based, human; details: 10 μM
[12] = system: PRMI-8226 cell line; assay: NCI one-dose screening, leukemia PRMI-8226; format: cell-based, human; details: 10 μM
[13] = system: SR; assay: NCI one-dose screening, leukemia SR; format: cell-based, human; details: 10 μM
[14] = system: HT29; assay: NCI one-dose screening, colon cancer HT29; format: cell-based, human; details: 10 μM
[15] = system: HOP-92; assay: NCI one-dose screening, non-small cell lung cancer HOP-92; format: cell-based, human; details: 10 μM
[16] = system: SK-MEL-5; assay: NCI one-dose screening, melanoma SK-MEL-5; format: cell-based, human; details: 10 μM
[17] = system: SK-MEL-28; assay: NCI one-dose screening, melanoma SK-MEL-28; format: cell-based, human; details: 10 μM
[18] = system: NCI-H460; assay: NCI one-dose screening, non-small cell lung cancer NCI-H460; format: cell-based, human; details: 10 μM
[19] = system: UACC-62; assay: NCI one-dose screening, melanoma UACC-62; format: cell-based, human; details: 10 μM
[20] = system: K562cell line; assay: NCI one-dose screening, leukemia K562; format: cell-based, human; details: 10 μM
[21] = system: OVCAR-8; assay: NCI one-dose screening, ovarian cancer OVCAR-8; format: cell-based, human; details: 10 μM
[22] = system: EKVX; assay: NCI one-dose screening, non-small cell lung cancer EKVX; format: cell-based, human; details: 10 μM
[23] = system: DU145; assay: NCI one-dose screening, prostate cancer DU145; format: cell-based, human; details: 10 μM
[24] = system: SNB-19; assay: NCI one-dose screening, CNS cancer SNB-19; format: cell-based, human; details: 10 μM
[25] = system: NCI-H23; assay: NCI one-dose screening, non-small cell lung cancer NCI-H23; format: cell-based, human; details: 10 μM
[26] = NCI one-dose screening, renal cancer A489; format: cell-based, human; details: 10 μM
[27] = system: HOP-62; assay: NCI one-dose screening, non-small cell lung cancer HOP-62; format: cell-based, human; details: 10 μM
[28] = system: COLO 205; assay: NCI one-dose screening, colon cancer COLO 205; format: cell-based, human; details: 10 μM
[29] = system: BT-549; assay: NCI one-dose screening, breast cancer BT-549; format: cell-based, human; details: 10 μM
[30] = system: A549/ATCC; assay: NCI one-dose screening, non-small cell lung cancer A549/ATCC; format: cell-based, human; details: 10 μM
[31] = system: IGROV1; assay: NCI one-dose screening, ovarian cancer IGROV1; format: cell-based, human; details: 10 μM
[32] = system: SF-268; assay: NCI one-dose screening, CNS cancer SF-268; format: cell-based, human; details: 10 μM
[33] = system: PC-3 prostate cancer cell line; assay: SRB assay cell viability, PC-3 prostate cancer cell line; format: cell-based, human; details: Homo sapiens, PC-3 prostate cancer cell line, Table II prints no unit, μM printed, read-out: SRB assay: 50% inhibition of cancer cell proliferation of sample concentration (IC50) of PC-3 prostate cancer cell line
[34] = system: SK-MEL-2; assay: NCI one-dose screening, melanoma SK-MEL-2; format: cell-based, human; details: 10 μM
[35] = system: human tumor cell lines; assay: NCI one-dose screening, Mean / Delta / Range of growth percent over all tested cell lines; format: cell-based; details: 10 μM
[36] = system: NCI-H226; assay: NCI one-dose screening, non-small cell lung cancer NCI-H226; format: cell-based, human; details: 10 μM
[37] = system: OVCAR-3; assay: NCI one-dose screening, ovarian cancer OVCAR-3; format: cell-based, human; details: 10 μM
[38] = system: MALME-3M; assay: NCI one-dose screening, melanoma MALME-3M; format: cell-based, human; details: 10 μM
[39] = system: ACHN; assay: NCI one-dose screening, renal cancer ACHN; format: cell-based, human; details: 10 μM
[40] = system: NCI-H522; assay: NCI one-dose screening, non-small cell lung cancer NCI-H522; format: cell-based, human; details: 10 μM
[41] = system: RXF, 393; assay: NCI one-dose screening, renal cancer RXF, 393; format: cell-based, human; details: 10 μM
[42] = system: UO-31; assay: NCI one-dose screening, renal cancer UO-31; format: cell-based, human; details: 10 μM
[43] = system: HCC-2998; assay: NCI one-dose screening, colon cancer HCC-2998; format: cell-based, human; details: 10 μM
[44] = system: OVCAR-5; assay: NCI one-dose screening, ovarian cancer OVCAR-5; format: cell-based, human; details: 10 μM
[45] = system: SK-OV-3; assay: NCI one-dose screening, ovarian cancer SK-OV-3; format: cell-based, human; details: 10 μM
[46] = system: HL-60, TB; assay: NCI one-dose screening, leukemia HL-60, TB; format: cell-based, human; details: 10 μM
[47] = system: LOX IMVI; assay: NCI one-dose screening, melanoma LOX IMVI; format: cell-based, human; details: 10 μM
[48] = system: MDA-MB-468; assay: NCI one-dose screening, breast cancer MDA-MB-468; format: cell-based, human; details: 10 μM
[49] = system: TK-10; assay: NCI one-dose screening, renal cancer TK-10; format: cell-based, human; details: 10 μM
[50] = system: U251; assay: NCI one-dose screening, CNS cancer U251; format: cell-based, human; details: 10 μM
[51] = system: HS 578-T; assay: NCI one-dose screening, breast cancer HS 578-T; format: cell-based, human; details: 10 μM; Breast cancer
[52] = system: HCT-116; assay: NCI one-dose screening, colon cancer HCT-116; format: cell-based, human; details: 10 μM
[53] = system: MOLT-4; assay: NCI one-dose screening, leukemia MOLT-4; format: cell-based, human; details: 10 μM
[54] = system: MDA-MB-231/ATCC; assay: NCI one-dose screening, breast cancer MDA-MB-231/ATCC; format: cell-based, human; details: 10 μM
[55] = system: CAKI-1; assay: NCI one-dose screening, renal cancer CAKI-1; format: cell-based, human; details: 10 μM
[56] = system: MCF7; assay: NCI one-dose screening, breast cancer MCF7; format: cell-based, human; details: 10 μM
[57] = system: SNB-75; assay: NCI one-dose screening, CNS cancer SNB-75; format: cell-based, human; details: 10 μM

For `COc1ccc(Sc2cc3c(c4nsnc24)C(=O)c2ccccc2C3=O)cc1` [C41, 4-(4-methoxy-phenyl-thio)anthra[2,1-c] [1,2,5]thiadiazol-6,11-dione], the “Growth Percent KM12” value [1] was 101.28%, the “Growth Percent T-47D” value [2] was 89.66% and the “Growth Percent NCI/ADR-RES” value [3] was 97.60%. The “Growth Percent UACC-257” value [4] was 118.11%, the “Growth Percent SN12C” value [5] was 106.54% and the “Growth Percent MDA-MB-435” value [6] was 118.61%. For the same compound, the “Growth Percent SF-539” value [7] was 93.53%, the “Growth Percent 786-0” value [8] was 94.93% and the “Growth Percent PC-3” value [9] was 82.81%. For the same compound, the “Growth Percent M14” value [10] was 92.89%, the “Growth Percent HCT-15” value [11] was 109.35% and the “Growth Percent RPMI-8226” value [12] was 101.16%. For the same compound, the “Growth Percent SR” value [13] was 101.71%, the “Growth Percent HT29” value [14] was 101.30% and the “Growth Percent HOP-92” value [15] was 91.38%. The “Growth Percent SK-MEL-5” value [16] was 106.14%, the “Growth Percent SK-MEL-28” value [17] was 115.63% and the “Growth Percent NCI-H460” value [18] was 107.16%. For the same compound, the “Growth Percent UACC-62” value [19] was 108.99%, the “Growth Percent K562” value [20] was 91.98% and the “Growth Percent OVCAR-8” value [21] was 99.50%. For the same compound, the “Growth Percent EKVX” value [22] was 148.76%, the “Growth Percent DU145” value [23] was 112.48% and the “Growth Percent SNB-19” value [24] was 113.97%. For the same compound, the “Growth Percent NCI-H23” value [25] was 89.13%, the “Growth Percent A498” value [26] was 84.77% and the “Growth Percent HOP-62” value [27] was 95.20%. The “Growth Percent COLO 205” value [28] was 112.25%, the “Growth Percent BT-549” value [29] was 92.92% and the “Growth Percent A549/ATCC” value [30] was 103.32%. For the same compound, the “Growth Percent IGROV1” value [31] was 103.17%, the “Growth Percent SF-268” value [32] was 94.81% and the IC50 [33] was > 15 µM. The “Growth Percent SK-MEL-2” value [34] was 99.24%, the “Growth Percent Delta” value ([35]; delta over all cell lines) was 32.46% and the “Growth Percent Mean” value ([35]; mean over all cell lines) was 1000.77%. For the same compound, the “Growth Percent Range” value ([35]; range over all cell lines) was 80.45%, the “Growth Percent NCI-H226” value [36] was 79.51% and the “Growth Percent OVCAR-3” value [37] was 109.57%. The “Growth Percent MALME-3M” value [38] was 89.52%, the “Growth Percent ACHN” value [39] was 102.26% and the “Growth Percent NCI-H522” value [40] was 95.69%. The “Growth Percent RXF 393” value [41] was 109.28%, the “Growth Percent UO-31” value [42] was 68.31% and the “Growth Percent HCC-2998” value [43] was 106.85%. The “Growth Percent OVCAR-5” value [44] was 103.00%, the “Growth Percent SK-OV-3” value [45] was 106.18% and the “Growth Percent HL-60(TB)” value [46] was 102.73%. For the same compound, the “Growth Percent LOX IMVI” value [47] was 90.24%, the “Growth Percent MDA-MB-468” value [48] was 112.95% and the “Growth Percent TK-10” value [49] was 135.79%. The “Growth Percent U251” value [50] was 102.73%, the “Growth Percent HS 578T” value [51] was 96.71% and the “Growth Percent HCT-116” value [52] was 94.64%. The “Growth Percent MOLT-4” value [53] was 82.89%, the “Growth Percent MDA-MB-231/ATCC” value [54] was 87.58% and the “Growth Percent CAKI-1” value [55] was 108.29%. For the same compound, the “Growth Percent MCF7” value [56] was 93.78% and the “Growth Percent SNB-75” value [57] was 79.05%.
